Structures can show the parent of a compound that is named as a salt.

The melting point is the temperature of the solid-liquid transition.

`Cl.Cl.N=C(N)c1ccc(OCCCOc2ccc(-c3cc4ccc(C(=N)N)cc4o3)cc2)cc1` displayed a melting point of 294 to 295 °C. As to `N=C(NO)c1cccc(-c2cc3ccc(C(=N)NO)cc3o2)c1` (as salt: HCl) [Compound 180, 2-(3-(N-Hydroxycarbamimidoyl)phenyl)-N-hydroxybenzofuran-6-carboxamidine], the melting point was 210 °C (dec.).

Take `N=C(NO)c1ccc(-c2cc3ccc(C(=N)NO)cc3o2)cc1` (as salt: HCl) [Compound 181, 2-(4-(N-Hydroxycarbamimidoyl)phenyl)-N-hydroxybenzofuran-6-carboxamidine]: the melting point was 210 °C (dec.). In the case of `N=C(NO)c1ccc(OCCCOc2ccc(-c3cc4cc(C(=N)NO)ccc4o3)cc2)cc1` (as salt: HCl) [Compound 182, 2-(4-(3-(4-(N-Hydroxycarbamimidoyl)phenoxy)propoxy)phenyl)-N-hydroxybenzofuran-5-carboxamidine] it was 204 °C (dec.). On to `N=C(NO)c1ccc(OCCCCCOc2ccc(-c3cc4cc(C(=N)NO)ccc4o3)cc2)cc1` (as salt: HCl) [Compound 183, 2-(4-(5-(4-(N-Hydroxycarbamimidoyl)phenoxy)pentyloxy)phenyl)-N-hydroxybenzofuran-5-carboxamidine], for which the melting point was 202 °C (dec.). For the molecule `N=C(NO)c1ccc2cc(CCCCCc3cc4ccc(C(=N)NO)cc4o3)oc2c1` (as salt: HCl) [Compound 184, 2-(5-(6-(N-Hydroxycarbamimidoyl)benzofuran-2-yl)pentyl)-N-hydroxybenzofuran-6-carboxamidine], the melting point is 220 °C (dec.). Next, `N=C(NO)c1ccc2oc(CCCc3cc4cc(C(=N)NO)ccc4o3)cc2c1` (as salt: HCl) [Compound 185, 2-(3-(5-(N-Hydroxycarbamimidoyl)benzofuran-2-yl)propyl)-N-hydroxybenzofuran-5-carboxamidine]: 145 to 147 °C (dec.); `N=C(NO)c1ccc2oc(CCCCc3cc4cc(C(=N)NO)ccc4o3)cc2c1` (as salt: HCl) [Compound 186, 2-(4-(5-(N-Hydroxycarbamimidoyl)benzofuran-2-yl)butyl)-N-hydroxybenzofuran-5-carboxamidine]: 231 °C (dec.). Next, `CONC(=N)c1ccc2cc(CCCCCc3cc4ccc(C(=N)NOC)cc4o3)oc2c1` (as salt: HCl) [Compound 187, 2-(5-(6-(N-Methoxycarbamimidoyl)benzofuran-2-yl)pentyl)-N-methoxybenzofuran-6-carboxamidine]: 230 to 231 °C (dec.); `CONC(=N)c1ccc2oc(CCCc3cc4cc(C(=N)NOC)ccc4o3)cc2c1` (as salt: HCl) [Compound 188, 2-(3-(5-(N-Methoxycarbamimidoyl)benzofuran-2-yl)propyl)-N-methoxybenzofuran-5-carboxamidine]: 89 to 90 °C (dec.).

As for `CONC(=N)c1ccc2oc(CCCCc3cc4cc(C(=N)NOC)ccc4o3)cc2c1` (as salt: HCl) [Compound 189, 2-(4-(5-(N-Methoxycarbamimidoyl)benzofuran-2-yl)butyl)-N-methoxybenzofuran-5-carboxamidine], the melting point was 248 to 250 °C (dec.). In the case of `CONC(=N)c1ccc2oc(CCc3cc4cc(C(=N)NOC)ccc4o3)cc2c1` (as salt: HCl) [Compound 191, 2-(2-(5-(N-Methoxycarbamimidoyl)benzofuran-2-yl)ethyl)-N-methoxybenzofuran-5-carboxamidine] it was 245 to 246 °C (dec.); in that of `N=C(NO)c1ccc2oc(CCCCCc3cc4cc(C(=N)NO)ccc4o3)cc2c1` (as salt: HCl) [Compound 192, 2-(5-(5-(N-Hydroxycarbamimidoyl)benzofuran-2-yl)pentyl)-N-hydroxybenzofuran-5-carboxamidine], 120 °C (dec.); in that of `CONC(=N)c1ccc2oc(CCCCCc3cc4cc(C(=N)NOC)ccc4o3)cc2c1` (as salt: HCl) [Compound 193, 2-(5-(5-(N-Methoxycarbamimidoyl)benzofuran-2-yl)pentyl)-N-methoxybenzofuran-5-carboxamidine], 118 °C (dec.).

`c1cc(OCCCCCCOc2ccc(C3=NCCN3)cc2)cc(-c2cc3cc(C4=NCCN4)ccc3o2)c1` (as salt: salt) [Compound 43, 2-(2-(3-(6-(4-(4,5-Dihydro-1H-imidazol-2-yl)phenoxy)hexyloxy)phenyl)benzofuran-5-yl)-4,5-dihydro-1H-imidazole] yielded a melting point of 178 to 182 °C. Consider `Cl.Cl.c1cc(C2=NCCN2)c2cc(Cc3cc4c(C5=NCCN5)cccc4o3)oc2c1` [Compound 3, Bis(4-(4,5-dihydro-1H-imidazol-2-yl)benzofuran-2-yl)methane dihydrochloride], for which the melting point fell in the range of 333 to 335 °C. Next, `Cl.Cl.N=C(N)c1ccc2oc(Cc3cc4cc(C(=N)N)ccc4o3)cc2c1` [Compound 4, 2-((5-Amidinobenzofuran-2-yl)methyl)benzofuran-5-carboxamidine dihydrochloride]: 212 to 214 °C; `Cl.Cl.c1cc2oc(Cc3cc4cc(C5=NCCN5)ccc4o3)cc2cc1C1=NCCN1` [Compound 6, Bis(5-(4,5-dihydro-1H-imidazol-2-yl)benzofuran-2-yl)methane dihydrochloride]: 233 to 235 °C; `Cl.Cl.c1cc2cc(Cc3cc4ccc(C5=NCCN5)cc4o3)oc2cc1C1=NCCN1` [Compound 7, Bis(6-(4,5-dihydro-1H-imidazol-2-yl)benzofuran-2-yl)methane dihydrochloride]: 341 to 343 °C. Next, `Cl.Cl.c1cc2oc(CCc3cc4cc(C5=NCCN5)ccc4o3)cc2cc1C1=NCCN1` [Compound 10, 4,5-Dihydro-2-(2-(2-(5-(4,5-dihydro-1H-imidazol-2-yl)benzofuran-2-yl)ethyl)benzofuran-5-yl)-1H-imidazole dihydrochloride]: 366 °C (dec.); `Cl.Cl.N=C(N)c1ccc2cc(CCc3cc4ccc(C(=N)N)cc4o3)oc2c1` [Compound 11, 2-(2-(6-Amidinobenzofuran-2-yl)ethyl)benzofuran-6-carboxamidine dihydrochloride]: 362 °C (dec.); `Cl.Cl.c1cc2cc(CCc3cc4ccc(C5=NCCN5)cc4o3)oc2cc1C1=NCCN1` [Compound 13, 4,5-dihydro-2-(2-(2-(6-(4,5-dihydro-1H-imidazol-2-yl)benzofuran-2-yl)ethyl)benzofuran-6-yl)-1H-imidazole dihydrochloride]: over 360 °C. In the case of `Cl.Cl.N=C(N)c1ccc2oc(CCCc3cc4cc(C(=N)N)ccc4o3)cc2c1` [Compound 14, 2-(3-(5-Amidinobenzofuran-2-yl)propyl)benzofuran-5-carboxamidine dihydrochloride] it was 168 to 170 °C; in that of `Cl.Cl.c1cc2oc(CCCc3cc4cc(C5=NCCN5)ccc4o3)cc2cc1C1=NCCN1` [Compound 16, 4,5-Dihydro-2-(2-(3-(5-(4,5-dihydro-1H-imidazol-2-yl)benzofuran-2-yl)propyl)benzofuran-5-yl)-1H-imidazole dihydrochloride], 203 to 205 °C; in that of `Cl.Cl.N=C(N)c1ccc2cc(CCCc3cc4ccc(C(=N)N)cc4o3)oc2c1` [Compound 17, 2-(3-(6-Amidinobenzofuran-2-yl)propyl)benzofuran-6-carboxamidine dihydrochloride], > 300 °C (dec.).

Take `Cl.Cl.c1cc2cc(CCCc3cc4ccc(C5=NCCN5)cc4o3)oc2cc1C1=NCCN1` [Compound 19, 4,5-Dihydro-2-(2-(3-(6-(4,5-dihydro-1H-imidazol-2-yl)benzofuran-2-yl)propyl)benzofuran-6-yl)-1H-imidazole dihydrochloride]: the melting point was > 300 °C (dec.). Next, `Cl.Cl.N=C(N)c1ccc2oc(CCCCc3cc4cc(C(=N)N)ccc4o3)cc2c1` [Compound 20, 2-(4-(5-Amidinobenzofuran-2-yl)butyl)benzofuran-5-carboxamidine dihydrochloride]: 325 to 327 °C (dec.); `Cl.Cl.c1cc2oc(CCCCc3cc4cc(C5=NCCN5)ccc4o3)cc2cc1C1=NCCN1` [Compound 22, 4,5-Dihydro-2-(2-(4-(5-(4,5-dihydro-1H-imidazol-2-yl)benzofuran-2-yl)butyl)benzofuran-5-yl)-1H-imidazole dihydrochloride]: 323 to 324 °C (dec.). Turning to `Cl.Cl.N=C(N)c1ccc2cc(CCCCc3cc4ccc(C(=N)N)cc4o3)oc2c1` [Compound 23, 2-(4-(6-Amidinobenzofuran-2-yl)butyl)benzofuran-6-carboxamidine dihydrochloride], the melting point is 328 to 330 °C (dec.). In the case of `Cl.Cl.c1cc2cc(CCCCc3cc4ccc(C5=NCCN5)cc4o3)oc2cc1C1=NCCN1` [Compound 25, 4,5-Dihydro-2-(2-(4-(6-(4,5-dihydro-1H-imidazol-2-yl)benzofuran-2-yl)butyl)benzofuran-6-yl)-1H-imidazole dihydrochloride] it was 343 to 345 °C (dec.); in that of `Cl.Cl.c1cc2oc(CCCCCc3cc4cc(C5=NCCN5)ccc4o3)cc2cc1C1=NCCN1` [Compound 28, 4,5-Dihydro-2-(2-(5-(5-(4,5-dihydro-1H-imidazol-2-yl)benzofuran-2-yl)pentyl)benzofuran-5-yl)-1H-imidazole dihydrochloride], 155 to 157 °C. Turning to `Cl.Cl.N=C(N)c1ccc2cc(CCCCCc3cc4ccc(C(=N)N)cc4o3)oc2c1` [Compound 29, 2-(5-(6-Amidinobenzofuran-2-yl)pentyl)benzofuran-6-carboxamidine dihydrochloride], the melting point was 243 to 245 °C (dec.).

In the case of `Cl.Cl.c1cc2cc(CCCCCc3cc4ccc(C5=NCCN5)cc4o3)oc2cc1C1=NCCN1` [Compound 31, 4,5-Dihydro-2-(2-(5-(6-(4,5-dihydro-1H-imidazol-2-yl)benzofuran-2-yl)pentyl)benzofuran-6-yl)-1H-imidazole dihydrochloride], the melting point is 308 to 310 °C (dec.).

(Values after US20080114047A1 (priority 2003, published 2008).)
